According to US12528816B2, “Substituted imidazo [1,2-b] pyridazines and [1, 2, 4] triazolo [ 4,3-b] pyridazines as camkii inhibitors” (Cardurion Pharmaceuticals, INC., priority 2020, dated 2026):
pIC50: −log10 of the molar value.

What follows are compounds tested against T1, human CaMKIIδ (Homo sapiens, UniProt Q13557) (assay: Evaluation of in vitro CaMKII inhibitory activity (binding assay, TR-FRET)). Settings: human CaMKIIδ, TR-FRET binding assay; class symbols A/B/C; read-out: Act (CaMKII inhibitory activity, binding assay).
T1 construct: Full-length, glutathione-S-transferase(GST)-tagged, human CaMKIIδ was purchased from Carna Biosciences; purchased Carna Biosciences (CaMKIIδ); Wako Pure Chemical Industries (calmodulin) 02-111
Outline: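 Inhibitors, in eight concentrations of 4-fold dilution, were incubated 1 h at room temperature with a protein–fluorescent probe premix preformed 30 min on ice, containing calmodulin and terbium anti-GST antibody. Displacement read by TR-FRET in duplicate; IC50 by logistic fitting.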

Question: How did the pIC50 turn out when C[C@@H](Cn1cnnn1)Oc1cc(-c2ccc3ncc(-c4cc(C#N)ccc4C#N)n3n2)ccc1F [compound 185] was run?
Answer: Its pIC50 is > 8.00.

Question: C[C@@H](Cn1cnnn1)Oc1cc(-c2ccc3ncc(-c4cn(CC(=O)NCCN5CCOCC5)nc4C#N)n3n2)ccc1F [compound 127] was tested. Which pIC50 did it give?
Answer: Its pIC50 is < 7.00.

Question: C[C@@H](Cn1cnnn1)Oc1cc(-c2ccc3ncc(-c4cccc(OCC5CNC(=O)C5)c4C#N)n3n2)ccc1F (stereo partly shown) [compound 199] was tested. Which pIC50 did it give?
Answer: The pIC50 was > 8.00.

Same assay, conditions: in vitro CaMKII inhibitory activity (binding assay), human CaMKIIδ; read-out: Act

Question: With C[C@@H](Cn1cnnn1)Oc1cccc(-c2ccc3ncc(-c4cc(F)cc(C(F)F)c4C#N)n3n2)n1 [Example 417, 2-(difluoromethyl)-4-fluoro-6-[6-(6-{[(2S)-1-(1H-tetrazol-1-yl)propan-2-yl]oxy}pyridin-2-yl)imidazo[1,2-b]pyridazin-3-yl]benzonitrile] as the compound, how does the pIC50 read?
Answer: The pIC50 was > 8.00.

Question: COc1ccc(C#N)c(-c2cnc3ccc(-c4cccc(O[C@@H](C)Cn5cnnn5)c4)nn23)n1 [Example 313, 6-methoxy-2-[6-(3-{[(2S)-1-(1H-tetrazol-1-yl)propan-2-yl]oxy}phenyl)imidazo[1,2-b]pyridazin-3-yl]pyridine-3-carbonitrile] was tested. Which pIC50 did it give?
Answer: The pIC50 was > 8.00.

Question: With C[C@@H](Cn1cnnn1)Oc1cccc(-c2ccc3ncc(-c4cc(F)cnc4C#N)n3n2)c1 [compound 434] as the compound, how does the pIC50 read?
Answer: Its pIC50 is > 8.00.

Question: C[C@@H](Cn1cnnn1)Oc1cc(-c2ccc3ncc(-c4ccc(=O)n(C)c4C#N)n3n2)ccc1F [compound 256] was tested. Which pIC50 did it give?
Answer: Its pIC50 is < 7.00.
